The text below walks through data of article PMC9246256, “Structure-based optimization of type III indoleamine 2,3-dioxygenase 1 (IDO1) inhibitors” (Journal of Enzyme Inhibition and Medicinal Chemistry, 2022).

Usually IC50 stands for the midpoint of a concentration-inhibition curve. For orientation: inhibition means the percentage by which the read-out fell short of the control. A low value points to little suppression.

In data set [1] the target is T1, purified recombinant IDO1 (Homo sapiens, UniProt P14902).
T1 construct: Full-length human IDO1 gene was cloned into the pET-28a vector; inferred from pET-28a vector and HisTrap purification; made in house; host or cells: E. coli Rosetta (DE3)
Briefly: Enzymatic IDO1 inhibition assay (ascorbate/methylene blue reduction system, HPLC detection of kynurenine). The conditions noted are these: for IC50: enzymatic, L-Trp 100 µM, 0.01% Triton X-100, 5% DMSO, 20 min at room temperature, pH 6.5, duplicates; for LE [kcal/mol/HA]: ligand efficiency, LE = -RT log(IC50)/number of heavy atoms, from enzymatic IC50. It is filed as biochemical.
Protocol: Enzymatic IC50 values were measured with the ascorbate/methylene blue reduction system[85] in presence of a non-ionic detergent to reduce compound aggregation as described before[28]. Kynurenine and L-Trp concentrations were determined by HPLC through UV detection.
Full-length human IDO1 gene was cloned into the pET-28a vector and expressed in E. coli Rosetta (DE3) cells. […] The culture was harvested and frozen at −80 °C until further use. The frozen cells were lysed by sonication in 20 mM Tris pH 7, 400 mM NaCl, 1 mM MgCl2, 20 mM imidazole, 1 mM DTT, 0.5 mg/mL Lysozyme and Protease inhibitor. After centrifugation, the supernatant was loaded into a HisTrap HP column pre-equilibrated with buffer containing 20 mM Tris pH 7, 500 mM NaCl and 20 mM imidazole, and eluted with the same buffer containing 500 mM imidazole. Fractions containing IDO1 were pooled, concentrated, and injected on a size exclusion chromatography column (HiLoad Superdex S75 16/60) to increase purity. hIDO1 fractions were concentrated to 20 mg/mL in 20 mM Tris pH 7 and 150 mM NaCl.
The enzymatic inhibition assays were performed as described by Takikawa et al.[130] with some modifications. Briefly, the reaction mixture (100 µL) contained potassium phosphate buffer (100 mM, pH 6.5) ascorbic acid (20 mM), catalase (400 units/mL), methylene blue (10 µM), purified recombinant IDO1 (2.5 ng/µL), L-Trp (100 µM), Triton X-100 (0.01%) and DMSO (5 µL). The inhibitors were serially diluted 3-fold for at least 8 different concentrations. After incubation at room temperature for 20 min, the reaction was stopped in its linear phase by addition of trichloroacetic acid solution (40 mL, 30% w/v), and the samples were incubated at 50 °C for 30 min. After centrifugation, 80 µl of supernatant from each well were used for HPLC analysis. The mobile phase for HPLC analysis was composed of 50% (v/v) of methanol and 50% of sodium citrate buffer (40 mM, pH 2.4) containing 400 µM sodium dodecyl sulphate. […] All assays were carried out in duplicates. The activity (Act) of each compound was calculated as Act = RT log(IC50) in analogy to the relation between the binding free energy and the Ki value. The ligand efficiency (LE) was calculated as LE = −Act/NHA, where NHA is the number of non-hydrogen atoms (heavy atoms) in the compound.

The next data set deals with T2, hIDO1 (Homo sapiens, UniProt P14902).
T2 construct: The full ORF of hIDO1 was cloned into the mammalian expression vector pcDNA6/myc-His; myc-His (vector-encoded); host or cells: HEK 293 T
Put plainly: Cellular hIDO1 inhibition (kynurenine production) in transiently transfected HEK 293 T cells. It is filed as cell-based. The protocol: (§1) We tested the cellular hIDO1 inhibitory activity and toxicity of 30 active compounds at a single concentration (Figure 6 and Table 8). As some of the aniline derivatives reacted with Ehrlich’s reagent (p-dimethylaminobenzaldehyde, p-DMAB) used to quantify kynurenine, the kynurenine content of these samples was determined by HPLC. To be able to detect also weak inhibition, compounds were tested at the high concentration of 200 µM (Figure 6A and B, filled bars), except for less soluble compounds (52, 148, 149 and 153), which were tested at a concentration of 50 µM (Figure 6A and B, empty bars).
The cDNA encoding hIDO1 (NCBI, NM 0021464.3) was purchased from Origene as pCMV6-Entry vector (RC206592). The full ORF of hIDO1 was cloned into the mammalian expression vector pcDNA6/myc-His from Invitrogen. Human embryonic kidney 293 T (HEK 293 T) cells were transiently transfected with the plasmid construct encoding hIDO1. A 75 cm^2 flask containing HEK 293 T cells at a confluency of 70% was transfected with jetPEI DNA transfection reagent (Polyplus-transfection), according to manufacturer’s protocol. A total of 20 µg of pcDNA-IDO1 along with 5 µg of pcDNA-GFP plasmid were used for the transfection; GFP was used to evaluate transfection efficiency prior to the cellular assays. 16–18 h post-transfection the 293 T cells were detached with trypsin, centrifuged, and re-suspended in 25 mL of DMEM medium without phenol red, supplemented with penicillin and streptomycin, 10% foetal bovine serum and 1 mM pyruvate (Gibco). Subsequently, 100 µL of cells were distributed to each well of two 96-well round-bottom plates that had been pre-loaded with 100 µL DMEM and the small organic test molecule in DMSO (for a final DMSO concentration of 2%). DMEM medium contains 78 µM L-Trp and was supplemented with 500 µM of L-Trp. Cells transfected with hIDO1 were incubated for 7 h at 37 °C in a CO2 incubator. The reaction was stopped in its linear phase by adding trichloroacetic acid (TCA) to the medium at a final concentration of 4%. Plates were centrifuged for 15 min at 4,000 rpm. 100 µL of supernatant was added to 100 µL of 2% (w/v) DMAB in glacial acetic acid. After 10 min the absorbance was measured at a wavelength of 480 nm to detect kynurenine formation. Alternatively, kynurenine content was determined by HPLC as done for the enzymatic assay.

The subject of another data set is HEK 293 T cells. Briefly: Cell viability / cellular toxicity (DAPI staining, cytometry). It is filed as cell-based, human. The conditions noted are these: compound 200 µM, 7 h. As to the method:
as §1
Following DMSO (negative control) or inhibitor treatments, apoptotic cells were detected by 4′,6-diamidino-2-phenylindole (DAPI) staining. Briefly, after 7 h of incubation, cells were washed with PBS, resuspended in PBS with 1 µg/mL DAPI and immediately analysed using a BD LSR II cytometer. A 405 nm laser with 450/50 nm bandpass filter was used to collect data.

“And” between values parts separate entries of the source, which are not always exact repeats. Equal values may be shown once. Read-outs that look alike come from different tables or passages of the source.

T1 sequence (P14902 whole entry): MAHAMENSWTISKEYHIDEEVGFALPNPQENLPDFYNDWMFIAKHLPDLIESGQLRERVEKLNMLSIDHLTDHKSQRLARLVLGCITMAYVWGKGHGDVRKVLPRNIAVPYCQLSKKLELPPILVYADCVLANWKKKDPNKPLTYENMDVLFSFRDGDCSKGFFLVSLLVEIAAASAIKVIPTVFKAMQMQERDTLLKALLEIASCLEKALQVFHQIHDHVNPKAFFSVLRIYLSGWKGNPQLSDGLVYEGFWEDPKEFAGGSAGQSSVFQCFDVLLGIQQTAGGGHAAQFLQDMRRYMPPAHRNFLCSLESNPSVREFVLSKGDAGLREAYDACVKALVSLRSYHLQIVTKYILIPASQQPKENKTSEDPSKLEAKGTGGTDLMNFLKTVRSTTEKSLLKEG
T2 sequence (P14902 whole entry): as above

Regarding `Clc1ccc(-c2c[nH]nn2)c(Cl)c1` [Compound 48, 4–(2,4-Dichlorophenyl)-1,2,3-triazole], the IC50 in data set [1] (read-out: IC50 [ μ M] (SD)) stood at 31 µM. For the same molecule, in data set [1], the “LE [kcal/mol/HA]” value is 0.47 kcal/mol/HA. Besides, on hIDO1, 200 µM produced 63% inhibition. In the data set on HEK 293 T cells, the “Tox. [%]” value is recorded as 0 (0) %.
The corresponding values for `Clc1ccc(-c2c[nH]nn2)cc1Cl` [Compound 49, 4–(3,4-Dichlorophenyl)-1,2,3-triazole] are 51 µM, 0.45 kcal/mol/HA, 65% and 0 (0) %.
The corresponding values for `Brc1ccc(Nc2c[nH]nn2)cc1` [Compound 78, N-(4-Bromophenyl)-1,2,3-triazol-4-amine, reference compound] are 52 µM, 0.45 kcal/mol/HA, 97% and 0 (0) %.
As for `O=C(c1cnn[nH]1)c1ccccc1Cl` [Compound 100, (2-Chlorophenyl)(1H-1,2,3-triazol-5-yl)methanone], the IC50 in data set [1] (read-out: IC50 [ μ M] (SD)) is greater than 1000 µM.
Regarding `O=C(c1cccc(Cl)c1)c1cnn[nH]1` [Compound 101, (3-Chlorophenyl)(1H-1,2,3-triazol-5-yl)methanone], in data set [1] (read-out: IC50 [ μ M] (SD)), the IC50 worked out at 450 µM. Moreover, the “LE [kcal/mol/HA]” value in data set [1] came out at 0.33 kcal/mol/HA.
On to `O=C(c1ccc(Cl)cc1)c1cnn[nH]1` [Compound 102, (4-Chlorophenyl)(1H-1,2,3-triazol-5-yl)methanone], for which, in data set [1] (read-out: IC50 [ μ M] (SD)), the IC50 turned out to be 31 µM. Moreover, the “LE [kcal/mol/HA]” value in data set [1] is on record as 0.44 kcal/mol/HA. At hIDO1, this molecule yielded an inhibition at 200 µM of 37%. Moreover, the “Tox. [%]” value in the data set on HEK 293 T cells is on record as 0 (0) %.
`COc1ccccc1C(=O)c1cnn[nH]1` [Compound 103, (2-Methoxyphenyl)(1H-1,2,3-triazol-5-yl)methanone]: in data set [1] (read-out: IC50 [ μ M] (SD)), the IC50 is greater than 1000 µM.
On to `COc1cccc(C(=O)c2cnn[nH]2)c1` [Compound 104, (3-Methoxyphenyl)(1H-1,2,3-triazol-5-yl)methanone], for which the IC50 in data set [1] (read-out: IC50 [ μ M] (SD)) came out at 990 µM. Further, the “LE [kcal/mol/HA]” value in data set [1] turned out to be 0.28 kcal/mol/HA.
Turning to `COc1ccc(C(=O)c2cnn[nH]2)cc1` [Compound 105, (4-Methoxyphenyl)(1H-1,2,3-triazol-5-yl)methanone], the IC50 in data set [1] (read-out: IC50 [ μ M] (SD)) is 200 µM. For the same molecule, the “LE [kcal/mol/HA]” value in data set [1] came out at 0.34 kcal/mol/HA. The molecule also had an inhibition at 200 µM against hIDO1 of 22%. Also, the “Tox. [%]” value in the data set on HEK 293 T cells was 0 (0) %.
On to `O=C(c1cnn[nH]1)c1ccccc1O` [Compound 106, (2-Hydroxyphenyl)(1H-1,2,3-triazol-5-yl)methanone], for which the IC50 in data set [1] (read-out: IC50 [ μ M] (SD)) was 125 µM and 130 µM. The “LE [kcal/mol/HA]” value in data set [1] worked out at 0.38 kcal/mol/HA. The molecule also registered an inhibition at 200 µM on hIDO1 of 12%. In addition, the “Tox. [%]” value with HEK 293 T cells is on record as 0 (0) %.
With `O=C(c1cccc(O)c1)c1cnn[nH]1` [Compound 107, (3-Hydroxyphenyl)(1H-1,2,3-triazol-5-yl)methanone], the IC50 in data set [1] (read-out: IC50 [ μ M] (SD)) was greater than 1000 µM.
Same read-out and setting: the figure for `O=C(c1ccc(O)cc1)c1cnn[nH]1` [Compound 108, (4-Hydroxyphenyl)(1H-1,2,3-triazol-5-yl)methanone] is greater than 1000 µM.
As for `O=C(c1ccc(Br)cc1)c1cnn[nH]1` [Compound 109, (4-Bromophenyl)(1H-1,2,3-triazol-5-yl)methanone], the IC50 in data set [1] (read-out: IC50 [ μ M] (SD)) was 13 µM. In addition, in data set [1], the “LE [kcal/mol/HA]” value was 0.48 kcal/mol/HA. Also, at 200 µM the inhibition against hIDO1 was 55%. For the same molecule, the “Tox. [%]” value in the data set on HEK 293 T cells is 0 (0) %.
Turning to `O=C(c1ccc(F)cc1)c1cnn[nH]1` [Compound 110, (4-Fluorophenyl)(1H-1,2,3-triazol-5-yl)methanone], the IC50 in data set [1] (read-out: IC50 [ μ M] (SD)) was 185 µM and 190 µM. The “LE [kcal/mol/HA]” value in data set [1] amounted to 0.36 kcal/mol/HA. For the same molecule, at hIDO1, testing at 200 µM gave an inhibition of 12%. In addition, the “Tox. [%]” value in the data set with HEK 293 T cells is given as 0 (0) %.
`O=C(c1cnn[nH]1)c1ccc(Cl)cc1O` [Compound 112, (4-Chloro-2-hydroxyphenyl)(1H-1,2,3-triazol-5-yl)methanone]: the IC50 in data set [1] (read-out: IC50 [ μ M] (SD)) came out at 11 µM. Besides, the “LE [kcal/mol/HA]” value in data set [1] was 0.45 kcal/mol/HA. On hIDO1, this molecule gave an inhibition at 200 µM of 32%. Further, the “Tox. [%]” value in the data set on HEK 293 T cells is 0 (0) %.
Consider `O=C(c1ccc(Br)cc1)c1[nH]nnc1CO` [Compound 123, (4-Bromophenyl)(4-(hydroxymethyl)-1H-1,2,3-triazol-5-yl)methanone], for which the IC50 in data set [1] (read-out: IC50 [ μ M] (SD)) is greater than 1000 µM.
On the same count and under the same terms, the figure for `O=C(c1ccc(Br)cc1)c1[nH]nnc1CBr` [Compound 124, (4-(Bromomethyl)-1H-1,2,3-triazol-5-yl)(4-bromophenyl)methanone] is greater than 1000 µM.
Still for that read-out and setting: the figure for `NCc1nn[nH]c1C(=O)c1ccc(Br)cc1` [Compound 126, (4-(Aminomethyl)-1H-1,2,3-triazol-5-yl)(4-bromophenyl)methanone] is greater than 1000 µM.
On the same count and under the same terms, the result for `Fc1ccc(-c2nc[nH]n2)cc1` [Compound 134, 3–(4-Fluorophenyl)-1H-1,2,4-triazole] reads greater than 1000 µM.
On to `Brc1cccc(-c2nc[nH]n2)c1` [Compound 135, 3–(3-Bromophenyl)-1H-1,2,4-triazole], for which the IC50 in data set [1] (read-out: IC50 [ μ M] (SD)) worked out at 16 µM. For the same molecule, the “LE [kcal/mol/HA]” value in data set [1] turned out to be 0.55 kcal/mol/HA.
The corresponding values for `Fc1cccc(-c2nc[nH]n2)c1` [Compound 137, 3–(3-Fluorophenyl)-1H-1,2,4-triazole] are 160 µM and 0.43 kcal/mol/HA.
As to `O=C(Nc1ccccc1-c1nc[nH]n1)c1ccccc1` [Compound 152, N-(2-(1H-1,2,4-triazol-3-yl)phenyl)benzamide], the IC50 in data set [1] (read-out: IC50 [ μ M] (SD)) was greater than 100 µM.
In the case of `O=C(Nc1c(Cl)cccc1-c1nc[nH]n1)c1ccccc1` [Compound 154, N-(2-Chloro-6-(1H-1,2,4-triazol-3-yl)phenyl)benzamide], the IC50 in data set [1] (read-out: IC50 [ μ M] (SD)) is greater than 1000 µM.
Turning to `Cc1c(Br)ccc(N)c1-c1nc[nH]n1` [Compound 155, 4-Bromo-3-methyl-2-(1H-1,2,4-triazol-3-yl)aniline], in data set [1] (read-out: IC50 [ μ M] (SD)), the IC50 is 63 µM. In addition, in data set [1], the “LE [kcal/mol/HA]” value amounted to 0.41 kcal/mol/HA.
Take `c1cc(-c2nc[nH]n2)ccn1` [Compound 158, 4-(1H-1,2,4-Triazol-3-yl)pyridine]: in data set [1] (read-out: IC50 [ μ M] (SD)), the IC50 was greater than 1000 µM.
`c1ccc(-c2nnc[nH]2)nc1` [Compound 159, 2-(1H-1,2,4-Triazol-3-yl)pyridine]: the IC50 in data set [1] (IC50 [ μ M] (SD)) was greater than 1000 µM.
For the molecule `Nc1cccnc1-c1nc[nH]n1` [Compound 160, 2-(1H-1,2,4-Triazol-3-yl)pyridine-3-amine], the IC50 in data set [1] (read-out: IC50 [ μ M] (SD)) was found to be 16 µM. Besides, in data set [1], the “LE [kcal/mol/HA]” value is listed as 0.55 kcal/mol/HA.
Take `Nc1ccsc1-c1nc[nH]n1` [Compound 161, 2-(1H-1,2,4-Triazol-3-yl)thiophen-3-amine]: the IC50 in data set [1] (read-out: IC50 [ μ M] (SD)) was determined as 10 µM. Further, the “LE [kcal/mol/HA]” value in data set [1] stood at 0.57 kcal/mol/HA.
The corresponding values for `Clc1cncc(-c2nc[nH]n2)n1` [Compound 162, 2-Chloro-6-(1H-1,2,4-triazol-3-yl)pyrazine] are 250 µM and 0.41 kcal/mol/HA.
In the case of `Brc1ccc(Nc2nnc[nH]2)cc1` [Compound 166, N-(4-Bromophenyl)-4H-1,2,4-triazol-3-amine], the IC50 in data set [1] (read-out: IC50 [ μ M] (SD)) was greater than 1000 µM.
With `Cc1cccc2sc3nncn3c12` [Compound 167, tryclazole, reference compound], the IC50 in data set [1] (IC50 [ μ M] (SD)) was greater than 1000 µM.
On to `NC(=O)CSc1nnc2sc3ccccc3n12` [Compound 168, 2-((1,9a-Dihydrobenzo[4,5]thiazolo[2,3-c][1,2,4]triazol-3-yl)thio)acetamide], for which the IC50 in data set [1] (read-out: IC50 [ μ M] (SD)) was greater than 1000 µM.
Turning to `c1ccc(-n2cncn2)cc1` [Compound 170, 1-phenyl-1,2,4-triazole], the 50% inhibitory concentration (IC50) in data set [1] (read-out: IC50 [ μ M] (SD)) is 870 µM. In addition, in data set [1], the “LE [kcal/mol/HA]” value turned out to be 0.38 kcal/mol/HA.
On to `Oc1ccccc1-n1cncn1` [Compound 171], for which the IC50 in data set [1] (read-out: IC50 [ μ M] (SD)) came to 32 µM. In addition, the “LE [kcal/mol/HA]” value in data set [1] was 0.52 kcal/mol/HA.
